Measurements published in ChEMBL document CHEMBL4418299, “Compounds useful as csf1 modulators” (2016).

What was measured:
[1] = molecular target: Macrophage colony-stimulating factor 1 receptor (Homo sapiens, UniProt P07333); assay: Displacement of kinase tracer 236 from recombinant human His-tagged CSF1R cytoplasmic domain (538 to 910 residues) expressed in baculovirus-infected insect cells measured after 5 hrs by TR-FRET based LanthaScreen assay
[2] = molecular target: Vascular endothelial growth factor receptor 2 (Homo sapiens, UniProt P35968); assay: Displacement of kinase tracer 236 from recombinant human His-tagged KDR cytoplasmic domain (789 to 1356 residues) expressed in baculovirus-infected insect cells measured after 5 hrs by TR-FRET based LanthaScreen assay
Vascular endothelial growth factor receptor 2, sequence (P35968 whole entry, the tested form may be a part): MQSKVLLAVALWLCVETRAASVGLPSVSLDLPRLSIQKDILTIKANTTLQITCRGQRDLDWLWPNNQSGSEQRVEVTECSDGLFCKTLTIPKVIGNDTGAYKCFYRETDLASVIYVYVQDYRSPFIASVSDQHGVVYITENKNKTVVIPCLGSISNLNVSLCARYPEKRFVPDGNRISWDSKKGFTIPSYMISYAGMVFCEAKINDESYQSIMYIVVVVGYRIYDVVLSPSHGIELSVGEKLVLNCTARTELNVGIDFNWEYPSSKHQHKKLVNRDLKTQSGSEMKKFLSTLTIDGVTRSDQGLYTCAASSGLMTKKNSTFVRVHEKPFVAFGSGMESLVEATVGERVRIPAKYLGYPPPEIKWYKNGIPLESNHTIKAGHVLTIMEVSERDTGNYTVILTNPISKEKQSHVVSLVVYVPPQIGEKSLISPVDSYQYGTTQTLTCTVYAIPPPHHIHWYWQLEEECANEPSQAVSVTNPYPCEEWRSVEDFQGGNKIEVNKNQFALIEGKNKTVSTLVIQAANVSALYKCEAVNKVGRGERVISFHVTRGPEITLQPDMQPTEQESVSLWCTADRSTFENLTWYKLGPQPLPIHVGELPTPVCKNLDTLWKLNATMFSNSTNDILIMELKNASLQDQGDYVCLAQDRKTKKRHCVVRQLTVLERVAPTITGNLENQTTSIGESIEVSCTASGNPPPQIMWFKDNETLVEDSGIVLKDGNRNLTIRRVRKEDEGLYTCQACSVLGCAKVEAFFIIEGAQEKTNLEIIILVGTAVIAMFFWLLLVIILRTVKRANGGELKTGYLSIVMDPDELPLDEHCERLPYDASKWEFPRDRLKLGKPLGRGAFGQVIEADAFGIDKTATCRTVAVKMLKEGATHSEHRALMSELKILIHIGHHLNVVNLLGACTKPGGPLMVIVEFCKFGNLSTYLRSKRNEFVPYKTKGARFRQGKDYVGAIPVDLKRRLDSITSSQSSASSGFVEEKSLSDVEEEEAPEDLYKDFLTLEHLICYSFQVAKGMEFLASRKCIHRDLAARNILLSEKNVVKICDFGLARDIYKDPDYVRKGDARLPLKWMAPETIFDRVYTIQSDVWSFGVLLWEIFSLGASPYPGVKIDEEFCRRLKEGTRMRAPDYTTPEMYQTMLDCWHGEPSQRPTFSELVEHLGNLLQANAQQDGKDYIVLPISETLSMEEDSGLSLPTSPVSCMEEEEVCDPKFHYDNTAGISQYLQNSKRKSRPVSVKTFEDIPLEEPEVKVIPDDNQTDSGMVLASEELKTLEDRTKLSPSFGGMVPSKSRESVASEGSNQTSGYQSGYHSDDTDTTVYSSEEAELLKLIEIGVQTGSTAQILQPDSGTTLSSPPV

Macrophage colony-stimulating factor 1 receptor, sequence (P07333 whole entry, the tested form may be a part): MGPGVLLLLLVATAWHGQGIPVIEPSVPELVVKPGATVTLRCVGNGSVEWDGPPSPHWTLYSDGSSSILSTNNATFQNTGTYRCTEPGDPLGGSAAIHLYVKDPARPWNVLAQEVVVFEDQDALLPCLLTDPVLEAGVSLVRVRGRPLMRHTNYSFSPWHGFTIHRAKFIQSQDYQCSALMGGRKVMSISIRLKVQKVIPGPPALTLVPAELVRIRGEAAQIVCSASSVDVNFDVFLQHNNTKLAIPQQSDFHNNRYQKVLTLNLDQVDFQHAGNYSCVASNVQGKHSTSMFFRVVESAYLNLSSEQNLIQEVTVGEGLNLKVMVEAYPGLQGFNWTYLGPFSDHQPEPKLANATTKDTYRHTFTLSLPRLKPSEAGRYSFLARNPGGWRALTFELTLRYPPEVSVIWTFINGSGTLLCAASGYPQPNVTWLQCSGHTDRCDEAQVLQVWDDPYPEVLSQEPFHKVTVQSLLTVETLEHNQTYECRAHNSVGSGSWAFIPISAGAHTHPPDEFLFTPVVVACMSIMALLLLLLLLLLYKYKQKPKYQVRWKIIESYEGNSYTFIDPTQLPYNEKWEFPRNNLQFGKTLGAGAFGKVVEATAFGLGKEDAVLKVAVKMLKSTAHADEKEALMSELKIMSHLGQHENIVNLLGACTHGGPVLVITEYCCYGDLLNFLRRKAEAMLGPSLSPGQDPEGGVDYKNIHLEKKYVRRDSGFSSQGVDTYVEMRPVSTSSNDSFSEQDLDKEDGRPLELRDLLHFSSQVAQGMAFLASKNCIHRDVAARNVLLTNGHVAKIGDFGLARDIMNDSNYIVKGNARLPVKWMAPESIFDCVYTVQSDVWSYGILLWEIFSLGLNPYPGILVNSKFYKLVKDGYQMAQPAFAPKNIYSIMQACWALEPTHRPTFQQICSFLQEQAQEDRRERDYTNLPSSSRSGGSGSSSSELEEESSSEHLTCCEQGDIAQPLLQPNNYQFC

Structure (SMILES)	IC50 [1] [µM]	IC50 [2] [µM]
Cc1ccc(F)c(NC(=O)Cc2ccc(-n3c4c(c5ncnc(N)c53)COC4)cc2)c1	0.01 to 0.2	> 0.2
COc1ccc(NC(=O)Cc2ccc(-n3c4c(c5ncnc(N)c53)CCC4)cc2)c(F)c1	0.01 to 0.2	> 0.2
CC(C)(C)c1cc(NC(=O)Cc2ccc(-n3c4c(c5ncnc(N)c53)CCC4)cc2)n(-c2ccccc2)n1	< 0.01	< 0.01
Nc1ncnc2c3c(n(-c4ccc(CC(=O)Nc5ccc(Cl)c(C(F)(F)F)c5)cc4)c12)COC3	< 0.01	> 0.2
COc1ccc(NC(=O)Cc2ccc(-n3c4c(c5ncnc(N)c53)CCC4)cc2)cn1	0.01 to 0.2	> 0.2
Nc1ncnc2c3c(n(-c4ccc(CC(=O)Nc5ccc(Cl)c(C(F)(F)F)c5)cc4)c12)CCC3	0.009	> 0.2
Nc1ncnc2c3c(n(-c4ccc(CC(=O)Nc5ccc6c(c5)CCC6)cc4)c12)CCC3	< 0.01	0.01 to 0.2
Nc1ncnc2c3c(n(-c4ccc(CC(=O)Nc5nc(C(F)(F)F)cs5)cc4)c12)CCC3	0.01 to 0.2	> 0.2
COc1cc(-n2c3c(c4ncnc(N)c42)CCC3)ccc1CC(=O)Nc1ccnc(C(F)(F)F)c1	< 0.01	> 0.2
COc1cc(-n2c3c(c4ncnc(N)c42)CCC3)ccc1CC(=O)Nc1ccc(Cl)c(Cl)c1	< 0.01	> 0.2
Nc1ncnc2c3c(n(-c4ccc(CC(=O)Nc5ccc(C(F)(F)F)nc5)cc4)c12)CCC3	0.01 to 0.2	> 0.2
Nc1ncnc2c3c(n(-c4ccc(CC(=O)Nc5ccc(Cl)c(Cl)c5)cc4)c12)CCC3	< 0.01	> 0.2
Nc1ncnc2c3c(n(-c4ccc(CC(=O)Nc5ccc(C(F)(F)F)nn5)cc4)c12)CCC3	0.01 to 0.2	> 0.2
COc1ccc(NC(=O)Cc2ccc(-n3c4c(c5ncnc(N)c53)CCC4)cc2)cc1F	< 0.01	> 0.2
Nc1ncnc2c3c(n(-c4ccc(CC(=O)N5CCOc6ccccc65)cc4)c12)CCC3	< 0.01	> 0.2
Nc1ncnc2c3c(n(-c4ccc(CC(=O)Nc5ccc(OC(F)(F)F)cc5)cc4)c12)CCC3	0.01 to 0.2	> 0.2

Structure (SMILES)	IC50 [1] [µM]	IC50 [2] [µM]
Nc1ncnc2c3c(n(-c4ccc(CC(=O)Nc5ccc(C(F)(F)F)c(Cl)c5)cc4)c12)CCC3	< 0.01	> 0.2
COc1ccc(NC(=O)Cc2ccc(-n3c4c(c5ncnc(N)c53)COC4)cc2)cc1C(F)(F)F	< 0.01	0.01 to 0.2
Nc1ncnc2c3c(n(-c4ccc(CC(=O)Nc5ccc(C(F)(F)F)cn5)cc4)c12)CCC3	0.01 to 0.2	> 0.2
Nc1ncnc2c3c(n(-c4ccc(CC(=O)Nc5nc(C(F)(F)F)co5)cc4)c12)CCC3	0.01 to 0.2	> 0.2
Nc1ncnc2c3c(n(-c4ccc(CC(=O)Nc5ccc(C(F)(F)F)cn5)cc4)c12)COC3	0.01 to 0.2	> 0.2
COc1ccc(NC(=O)Cc2ccc(-n3c4c(c5ncnc(N)c53)CCC4)cc2OC)cc1F	< 0.01	> 0.2
Cn1ccc2cc(NC(=O)Cc3ccc(-n4c5c(c6ncnc(N)c64)CCC5)cc3)ccc21	< 0.01	> 0.2
Cc1ccc(F)c(NC(=O)Cc2ccc(-n3c4c(c5ncnc(N)c53)CCC4)cc2)c1	< 0.01	0.01 to 0.2
COc1cc(-n2c3c(c4ncnc(N)c42)CCC3)ccc1CC(=O)Nc1ccc(OC(F)(F)F)cc1	< 0.01	> 0.2
Nc1ncnc2c3c(n(-c4ccc(CC(=O)NC5CCOCC5)cc4)c12)CCC3	> 0.2	> 0.2
COc1cc(-n2c3c(c4ncnc(N)c42)CCC3)ccc1CC(=O)Nc1ccc(Cl)c(C(F)(F)F)c1	< 0.01	> 0.2
COc1cc(-n2c3c(c4ncnc(N)c42)CCC3)ccc1CC(=O)Nc1ccc(OC)c(C(F)(F)F)c1	< 0.01	> 0.2
Nc1ncnc2c3c(n(-c4ccc(CC(=O)Nc5ccnc(C(F)(F)F)c5)cc4)c12)CCC3	0.01 to 0.2	0.01 to 0.2
COc1ccc(NC(=O)Cc2ccc(-n3c4c(c5ncnc(N)c53)CCC4)cc2)cc1C(F)(F)F	< 0.01	0.01 to 0.2
COc1cc(-n2c3c(c4ncnc(N)c42)CCC3)ccc1CC(=O)Nc1cc(C(F)(F)F)ccc1F	< 0.01	> 0.2
Nc1ncnc2c3c(n(-c4ccc(CC(=O)Nc5ccc(OC(F)(F)F)cc5)cc4)c12)COC3	0.01 to 0.2	> 0.2
